The target in this assay is telomerase enzyme (Homo sapiens, UniProt O14746). The assay can be described thus: Flash Plate-based telomerase assay. Type of assay: biochemical. As to conditions: telomerase inhibition, two hours of incubation. From the text:
The telomerase activity of the compounds of the invention has been evaluated using a Flash Plate-based assay. […] Other methods for determining the inhibitory concentration of a compound of the invention against telomerase can be employed as will be apparent to a person skilled in the art based on the disclosure herein.
Briefly, the assay mixture is costituted by:
telomerase enzyme diluted in a buffer, the composition of which has been selected to maintain the enzyme activity stable along the duration of the assay.
dNTPs, deoxynucleotides 5′-triphosphate.
biotynilated oligo as primer.
increasing concentrations of test compounds/positive control.
After two hours of incubation at […] the telomeric repeats added are evaluated by hybridization in solution with a 3′-labeled short oligonucleotide probe.
The extent of hybridization is then quantitated by transferring the reaction mixture in a streptavidin-coated flash plate, where the binding between biotin and streptavidin occurs.
The telomerase activity is proportional to the radioactivity measured and the inhibitory activity of the compounds is evaluated as IC50 using the Sigma Plot fit program.
With the above-described method, IC50 values of the compounds of the present invention were determined.

SMILES strings stand for the structures.

Chain of telomerase enzyme (O14746 whole entry): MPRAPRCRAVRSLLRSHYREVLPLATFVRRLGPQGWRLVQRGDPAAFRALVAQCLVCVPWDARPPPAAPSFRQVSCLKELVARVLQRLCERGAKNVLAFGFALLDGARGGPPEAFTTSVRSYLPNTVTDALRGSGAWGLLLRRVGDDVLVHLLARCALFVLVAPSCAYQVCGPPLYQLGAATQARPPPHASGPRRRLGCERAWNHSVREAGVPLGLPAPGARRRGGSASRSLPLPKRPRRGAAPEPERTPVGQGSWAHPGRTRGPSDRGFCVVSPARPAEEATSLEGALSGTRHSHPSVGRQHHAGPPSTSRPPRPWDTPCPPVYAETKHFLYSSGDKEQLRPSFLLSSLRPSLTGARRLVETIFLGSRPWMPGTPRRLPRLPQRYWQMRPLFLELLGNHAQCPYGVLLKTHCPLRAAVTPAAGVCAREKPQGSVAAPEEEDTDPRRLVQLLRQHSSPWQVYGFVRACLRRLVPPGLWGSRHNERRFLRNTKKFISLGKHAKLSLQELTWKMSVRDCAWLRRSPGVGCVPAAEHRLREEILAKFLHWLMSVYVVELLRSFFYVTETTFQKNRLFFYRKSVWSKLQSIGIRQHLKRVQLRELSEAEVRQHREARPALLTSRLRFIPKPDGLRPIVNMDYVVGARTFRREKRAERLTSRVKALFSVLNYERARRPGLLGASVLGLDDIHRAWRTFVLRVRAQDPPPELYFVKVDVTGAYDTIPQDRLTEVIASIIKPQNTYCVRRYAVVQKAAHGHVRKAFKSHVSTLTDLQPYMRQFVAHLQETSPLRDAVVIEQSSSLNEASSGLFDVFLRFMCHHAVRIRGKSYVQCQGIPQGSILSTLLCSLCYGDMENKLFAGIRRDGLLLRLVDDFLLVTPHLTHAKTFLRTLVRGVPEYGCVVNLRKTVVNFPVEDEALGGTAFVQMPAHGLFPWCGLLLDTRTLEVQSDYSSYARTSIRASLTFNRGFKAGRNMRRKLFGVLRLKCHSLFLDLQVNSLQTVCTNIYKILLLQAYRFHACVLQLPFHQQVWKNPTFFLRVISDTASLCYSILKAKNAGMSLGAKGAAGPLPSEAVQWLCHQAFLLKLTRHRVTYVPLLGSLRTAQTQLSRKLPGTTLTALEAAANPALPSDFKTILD

Regarding `COC(=O)c1ccc(Cn2c(N)nc3ncn(Cc4ccc(C(=O)OC)cc4)c3c2=O)cc1` [compound 13, methyl 4-({2-amino-7-[4-(methoxycarbonyl)benzyl]-6-oxo-6,7-dihydro-1H-purin-1-yl}methyl) benzoate], the IC50 was 12.3 µM.

The values above are taken from US20040138212A1, “Disubstituted 1,7-guanines” (priority 2001, published 2004).
